Drawing on US20220071971A1, “MACROCYCLIC COMPOUNDS AND THEIR USE IN THE TREATMENT OF DISEASE” (NOVARTIS AG, priority 2018, published 2022), this text covers EC50 and Emax for eleven molecules.

The experiment deals with T1, delF508-CFTR (Homo sapiens, UniProt P13569, DEL508-508).
T1 construct: expressed in transfected cells
As to the kind of experiment: Measurement of delF508-CFTR-HRP surface expression in CFBE41o- cells. Format: cell-based. Conditions: for EC50: HRP-tagged delF508-CFTR surface expression, CFBE41o- cells, 24 h with compound, 10-point curve, highest concentration 10 μM; for Emax: CFBE41o-, efficacy relative to reference compound 3-(6-(1-(2,2-difluorobenzo[d][1,3]dioxol-5-yl)cyclopropane-1-carboxamido)-3-methylpyridin-2-yl)benzoic acid, read-out: DelF508-CFTR-HRP Amax %. The essentials: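 CFBE41o- cells stably expressing delF508-CFTR with HRP in the fourth extracellular loop, induced 48 h with 500 ng/mL doxycycline, then exposed to compound (10-point, 3-fold, top 10 μM, ≤0.5% DMSO) for 24 h at 37° C. Surface HRP read by luminescence with cell-impermeant substrate; EC50 by logistic fit, triplicates, efficacy relative to reference corrector.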

By EC50 is commonly meant the concentration needed to bring the measured effect to its halfway point.

T1 sequence (P13569 with tags, fused parts or gaps DEL508-508): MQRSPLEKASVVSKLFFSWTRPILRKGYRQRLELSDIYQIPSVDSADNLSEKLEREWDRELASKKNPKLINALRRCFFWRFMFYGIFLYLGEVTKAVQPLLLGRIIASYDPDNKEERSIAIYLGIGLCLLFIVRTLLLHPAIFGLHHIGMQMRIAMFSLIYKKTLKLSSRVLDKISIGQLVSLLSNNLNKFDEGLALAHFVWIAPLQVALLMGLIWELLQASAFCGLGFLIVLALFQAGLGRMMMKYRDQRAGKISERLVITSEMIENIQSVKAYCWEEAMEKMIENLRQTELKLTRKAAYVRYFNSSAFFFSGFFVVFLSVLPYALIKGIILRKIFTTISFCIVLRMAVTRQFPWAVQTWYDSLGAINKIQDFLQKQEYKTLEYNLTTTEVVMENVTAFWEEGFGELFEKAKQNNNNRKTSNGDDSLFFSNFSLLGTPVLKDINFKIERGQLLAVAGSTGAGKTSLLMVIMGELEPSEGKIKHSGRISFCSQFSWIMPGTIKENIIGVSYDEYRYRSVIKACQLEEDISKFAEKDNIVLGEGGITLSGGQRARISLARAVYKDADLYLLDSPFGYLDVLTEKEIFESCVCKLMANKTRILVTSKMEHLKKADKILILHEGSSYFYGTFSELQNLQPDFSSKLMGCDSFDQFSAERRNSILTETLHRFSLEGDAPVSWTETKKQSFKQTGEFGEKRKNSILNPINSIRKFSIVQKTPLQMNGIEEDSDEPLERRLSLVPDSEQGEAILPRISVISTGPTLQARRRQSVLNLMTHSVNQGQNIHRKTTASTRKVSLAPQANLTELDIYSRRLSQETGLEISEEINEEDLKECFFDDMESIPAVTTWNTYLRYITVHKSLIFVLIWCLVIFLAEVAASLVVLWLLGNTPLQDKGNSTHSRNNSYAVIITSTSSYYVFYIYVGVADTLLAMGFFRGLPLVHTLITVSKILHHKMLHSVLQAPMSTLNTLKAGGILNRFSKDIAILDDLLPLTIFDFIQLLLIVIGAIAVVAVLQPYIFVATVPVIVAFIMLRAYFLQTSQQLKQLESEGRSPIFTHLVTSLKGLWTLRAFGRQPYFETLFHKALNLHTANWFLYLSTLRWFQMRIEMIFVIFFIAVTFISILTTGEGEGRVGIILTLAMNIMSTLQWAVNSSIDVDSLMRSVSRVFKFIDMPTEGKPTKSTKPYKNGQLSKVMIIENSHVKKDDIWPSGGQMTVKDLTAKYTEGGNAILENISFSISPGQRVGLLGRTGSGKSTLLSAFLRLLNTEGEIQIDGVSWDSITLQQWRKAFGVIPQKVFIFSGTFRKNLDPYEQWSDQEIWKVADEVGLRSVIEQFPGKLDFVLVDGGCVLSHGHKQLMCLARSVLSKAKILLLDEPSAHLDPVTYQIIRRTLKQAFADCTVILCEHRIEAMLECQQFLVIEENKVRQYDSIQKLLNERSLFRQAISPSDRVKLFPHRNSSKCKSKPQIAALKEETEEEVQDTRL

With `O=C(O)CCCN1CCCCCc2ccccc2-c2nc(ccc2C(F)(F)F)NS(=O)(=O)c2cccc1n2` [Compound 67, 4-(4,4-dioxido-2^3-(trifluoromethyl)-4-thia-3,6-diaza-2,5(2,6)-dipyridina-1(1,2)-benzenacycloundecaphane-6-yl)butanoic acid], the concentration for a half-maximal effect (EC50) is 0.608 µM.

As for `O=S1(=O)Nc2ccc(C(F)(F)F)c(n2)-c2ccccc2CCCOCCNc2cccc1n2` [Compound 119, 2^3-(trifluoromethyl)-9-oxa-4-thia-3,6-diaza-2,5(2,6)-dipyridina-1(1,2)-benzenacyclododecaphane 4,4-dioxide], the Emax was 356% and the concentration giving a half-maximal response (EC50) came out at 0.866 µM.

Consider `NCCN1CCCCc2ccccc2-c2nc(ccc2C(F)(F)F)NS(=O)(=O)c2cccc1n2` [Compound 130, 6-(2-aminoethyl)-2^3-(trifluoromethyl)-4-thia-3,6-diaza-2,5(2,6)-dipyridina-1(1,2)-benzenacyclodecaphane 4,4-dioxide], for which the Emax was found to be 188% and the 50% effective concentration (EC50) came out at 2.44 µM.

Turning to `O=S1(=O)Nc2ccc(Cl)c(n2)-c2ccccc2CCCCCOc2cccc1n2` [Compound 113, 2^3-chloro-6-oxa-4-thia-3-aza-2,5(2,6)-dipyridina-1(1,2)-benzenacycloundecaphane 4,4-dioxide], the Emax was 664% and the EC50 amounted to 2.15 µM.

`O=C(O)CCCN1CCCCCc2ccccc2-c2nc(ccc2Cl)NS(=O)(=O)c2cccc1n2` [Compound 79, 4-(2^3-chloro-4,4-dioxido-4-thia-3,6-diaza-2,5(2,6)-dipyridina-1(1,2)-benzenacycloundecaphane-6-yl)butanoic acid]: the EC50 is 1.6 µM.

For `O=C(O)COCCN1CCCCCc2ccccc2-c2nc(ccc2C(F)(F)F)NS(=O)(=O)c2cccc1n2` [Compound 74, 2-(2-(4,4-dioxido-2^3-(trifluoromethyl)-4-thia-3,6-diaza-2,5(2,6)-dipyridina-1(1,2)-benzenacycloundecaphane-6-yl)ethoxy)acetic acid], the Emax was 745% and the EC50 was 1.99 µM.

Turning to `O=S1(=O)Nc2ccc(C(F)(F)F)c(n2)-c2ccccc2CCCCCCN(CCCCO)c2cccc1n2` [Compound 16, 6-(4-hydroxybutyl)-2^3-(trifluoromethyl)-4-thia-3,6-diaza-2,5(2,6)-dipyridina-1(1,2)-benzenacyclododecaphane 4,4-dioxide], the concentration giving a half-maximal response (EC50) was found to be 0.303 µM.

On to `CC1(C)O[C@@H](CO)[C@H](CN2CCCCCc3ccccc3-c3nc(ccc3C(F)(F)F)NS(=O)(=O)c3cccc2n3)O1` [Compound 34, 6-(((4S,5S)-5-(hydroxymethyl)-2,2-dimethyl-1,3-dioxolan-4-yl)methyl)-2^3-(trifluoromethyl)-4-thia-3,6-diaza-2,5(2,6)-dipyridina-1(1,2)-benzenacycloundecaphane 4,4-dioxide], for which the Emax amounted to 448% and the EC50 is 0.281 µM.

`O=S1(=O)Nc2ccc(C(F)(F)F)c(n2)-c2ccccc2COCCCNc2cccc1n2` [Compound 11, 2^3-(trifluoromethyl)-10-oxa-4-thia-3,6-diaza-2,5(2,6)-dipyridina-1(1,2)-benzenacycloundecaphane 4,4-dioxide]: the Emax amounted to 442% and the EC50 was 1.36 µM.

As for `O=C(O)CCCN1CCCCCCc2ccccc2-c2nc(ccc2C(F)(F)F)NS(=O)(=O)c2cccc1n2` [Compound 76, 4-(4,4-dioxido-2^3-(trifluoromethyl)-4-thia-3,6-diaza-2,5(2,6)-dipyridina-1(1,2)-benzenacyclododecaphane-6-yl)butanoic acid], the EC50 is 0.421 µM.

As for `O=S1(=O)Nc2ccc(C(F)(F)F)c(n2)-c2ccccc2CCCCCN(CCN2CC(O)C2)c2cccc1n2` [Compound 124, 6-(2-(3-hydroxyazetidin-1-yl)ethyl)-2^3-(trifluoromethyl)-4-thia-3,6-diaza-2,5(2,6)-dipyridina-1(1,2)-benzenacycloundecaphane 4,4-dioxide], the Emax turned out to be 382% and the EC50 amounted to 1.64 µM.
